Source: article PMC8206213, “An L-2-hydroxyglutarate biosensor based on specific transcriptional regulator LhgR” (Nature Communications, 2021)

Columns and labels:
LHGFR0N7C [1] = biological target: T1, LHGFR0N7C; assay: FRET titration of purified sensor with D-2-HG (10 nM to 2 mM) in 50 mM Tris-HCl pH 7.4, Venus/mTFP emission ratio (excitation 430 nm).; type: binding; details: SD, n = 3; read-out: apparent Kd in response to D-2-HG
T1 construct: FRET sensor: LhgR truncated by seven C-terminal amino acids between mTFP (N-terminus) and Venus (C-terminus)
Procedure: Purified L-2-HG biosensors and different compounds were diluted by 50 mM Tris-HCl buffer (pH 7.4), mixed together in a black 96-well plate at a volume ratio of 3:1, and the fluorescence intensities were measured using an EnSight microplate reader (PerkinElmer, USA) with excitation at 430 nm, emission at 485 nm (mTFP) and 528 nm (Venus). The dose-response curves were fitted by OriginPro 2016 software (OriginLab) according to the following formula:1 R=Rmax+Rmin−Rmax/1+([L-2-HG]/Kd)^p where R, Rmin, and Rmax refer to the emission ratio of Venus to mTFP, ratio in the absence of L-2-HG, and ratio at saturation with L-2-HG, respectively. The [L-2-HG], Kd, and p refer to the L-2-HG concentration, apparent dissociation constant, and Hill slope, respectively. Emission spectra were recorded at 430 nm excitation, in steps of 2 nm. Excitation spectra were recorded using emission at 550 nm, excitation from 380 to 535 nm in steps of 2 nm. […]
column in the presence of only L-2-HG was used as the control. (c, d) Comparison of the […]
LHGFR0N7C (d). […]
response to D-2-HG (1.85 ± 0.91 mM; black line) than L-2-HG (7.22 ± 0.38 μM; red line). (e-j) Dose-response curves of LHGFR0N3C (e, g, and i) and LHGFR0N7C (f, h, and j) for increasing concentrations (10 nM to 2 mM) of L-2-HG were measured in the presence of 240 μM D-2-HG (e, f), 1 mM 2-KG (g, h), or 1 mM ATP (i, j). […]

LHGFR0N0C = biological target: T2, LHGFR0N0C; assay: FRET titration of purified sensor with L-2-HG in 50 mM Tris-HCl pH 7.4, Venus/mTFP emission ratio (excitation 430 nm, emission 528/485 nm), Hill-type fit.; type: binding; details: SD, n = 3; read-out: apparent dissociation constant (Kd)
T2 construct: FRET sensor: full-length LhgR between mTFP (N-terminus) and Venus (C-terminus); pETDuet-1, Ni-chelating purification
Procedure: (§1) Purified L-2-HG biosensors and different compounds were diluted by 50 mM Tris-HCl buffer (pH 7.4), mixed together in a black 96-well plate at a volume ratio of 3:1, and the fluorescence intensities were measured using an EnSight microplate reader (PerkinElmer, USA) with excitation at 430 nm, emission at 485 nm (mTFP) and 528 nm (Venus). The dose-response curves were fitted by OriginPro 2016 software (OriginLab) according to the following formula:1 R=Rmax+Rmin−Rmax/1+([L-2-HG]/Kd)^p where R, Rmin, and Rmax refer to the emission ratio of Venus to mTFP, ratio in the absence of L-2-HG, and ratio at saturation with L-2-HG, respectively. The [L-2-HG], Kd, and p refer to the L-2-HG concentration, apparent dissociation constant, and Hill slope, respectively. Emission spectra were recorded at 430 nm excitation, in steps of 2 nm. Excitation spectra were recorded using emission at 550 nm, excitation from 380 to 535 nm in steps of 2 nm.
(§2) Fig. 3 Design and optimization of the LHGFR. a Schematic representation of the predicted conformational change of LhgR-based L-2-HG biosensor LHGFR in the absence or presence of L-2-HG. […] The emission ratio of Venus to mTFP increased (430 nm excitation) after L-2-HG binding. c Heap map of the truncating the N-terminal and C-terminal amino acids of LhgR to ∆Rmax. […] The emission ratio changes of both biosensors were measured in the presence of 240 μM D-lactate, L-lactate, L-2-HG, D-2-HG, or different intermediates of the TCA cycle and L-lysine catabolism. g, h Reversal of L-2-HG binding with LHGFR by conversion of L-2-HG to 2-KG. […] All data shown are means ± s.d. (n = 3 independent experiments).
(§3) Supplementary Figure 6 Dose-response curves of purified LHGFR variants truncated three to seven C-terminal amino acids in LhgR for L-2-HG. Dose-response curves of LHGFR0N3C […]
(§4) concentrations (10 nM to 2 mM) of L-2-HG were indicated. The maximum ratio change (∆Rmax), apparent dissociation constant (Kd), and R2 were shown in each figure. All data shown are means ± s.d. (n = 3 independent experiments). Source data are provided as a […]

LHGFR0N3C [2] = biological target: T3, LHGFR0N3C; assay: as above; type: binding; details: SD, n = 3; read-out: apparent dissociation constant (Kd)
T3 construct: FRET sensor: LhgR truncated by three C-terminal amino acids between mTFP (N-terminus) and Venus (C-terminus)
Procedure: as §1, §2, §3, §4

LHGFR0N7C [3] = biological target: T1, LHGFR0N7C; assay: as above; type: binding; details: SD, n = 3; read-out: apparent dissociation constant (Kd)
Procedure: as §1, §2, §3, §4

LHGFR0N3C [4] = biological target: T3, LHGFR0N3C; assay: FRET titration of purified sensor with L-2-HG (10 nM to 2 mM) added to filtered human serum, sensor in 50 mM Tris-HCl pH 7.4 mixed 3:1, Venus/mTFP emission ratio.; type: binding; details: SD, n = 3
Procedure: (§5) Purified L-2-HG biosensors and different compounds were diluted by 50 mM Tris-HCl buffer (pH 7.4), mixed together in a black 96-well plate at a volume ratio of 3:1, and the fluorescence intensities were measured using an EnSight microplate reader (PerkinElmer, USA) with excitation at 430 nm, emission at 485 nm (mTFP) and 528 nm (Venus). The dose-response curves were fitted by OriginPro 2016 software (OriginLab) according to the following formula:1 R=Rmax+Rmin−Rmax/1+([L-2-HG]/Kd)^p where R, Rmin, and Rmax refer to the emission ratio of Venus to mTFP, ratio in the absence of L-2-HG, and ratio at saturation with L-2-HG, respectively. […] Emission spectra were recorded at 430 nm excitation, in steps of 2 nm. Excitation spectra were recorded using emission at 550 nm, excitation from 380 to 535 nm in steps of 2 nm.
(§6) In order to test the ability of LHGFR for quantitative analysis L-2-HG in different biological samples, purified LHGFR was diluted by 50 mM Tris-HCl (pH 7.4), while varying concentrations of L-2-HG were added into the serum and urine of a healthy adult and bacteria culture medium and filtered through a 0.22 μm filter, respectively. […] The mixtures of purified LHGFR and L-2-HG in different biological samples were then incubated in a black 96-well plate at a volume ratio of 3:1, and the emission ratios were determined using an EnSight microplate reader. […]

LHGFR0N7C [5] = biological target: T1, LHGFR0N7C; assay: as above; type: binding; details: SD, n = 3
Procedure: as §5, §6

LHGFR0N3C [6] = biological target: T3, LHGFR0N3C; assay: FRET titration of purified sensor with L-2-HG (10 nM to 2 mM) added to human urine diluted with an equal volume of 50 mM Tris-HCl pH 7.4, mixed 3:1, Venus/mTFP emission ratio.; type: binding; details: SD, n = 3
Procedure: as §5, §6

LHGFR0N7C [7] = biological target: T1, LHGFR0N7C; assay: as above; type: binding; details: SD, n = 3
Procedure: as §5, §6

LHGFR0N3C [8] = biological target: T3, LHGFR0N3C; assay: FRET titration of purified sensor with L-2-HG (10 nM to 2 mM) added to filtered bacterial culture medium, sensor in 50 mM Tris-HCl pH 7.4 mixed 3:1, Venus/mTFP emission ratio.; type: binding; details: SD, n = 3
Procedure: as §5, §6

LHGFR0N7C [9] = biological target: T1, LHGFR0N7C; assay: as above; type: binding; details: SD, n = 3
Procedure: as §5, §6

LHGFR0N3C [10] = test system: T3, LHGFR0N3C; assay: Emission ratio of sensor in living carbon-starved E. coli BL21(DE3) versus exogenous L-2-HG (100 nM to 10 mM) at 60 min, 37 °C.; type: cell-based; details: read-out: apparent Kd of LHGFR0N3C expressed in E. coli BL21(DE3); SD, n = 3
Procedure: E. coli BL21(DE3) strains harboring either pETDuet-LHGFR0N3C, pETDuet-LHGFR0N7C, or pETDuet-LHGFR3N7C were grown to an OD600 of 0.6 in LB medium at 37 °C, after which the cells were induced overnight in the presence of 1 mM IPTG at 16 °C.
To characterize the sensitivity and specificity of LHGFR expressed in E. coli BL21(DE3), 90 μL cell suspensions following 8 h carbon starvation were mixed with 10 μL increasing concentrations of L-2-HG or other compounds, and then added into a black 96-well plate (total 100 μL/per well), the fluorescence intensities were determined using an EnSight microplate reader (PerkinElmer, USA) and the following instrument settings: excitation at 430 nm, emission at 485 nm (mTFP) and 528 nm (Venus), time intervals of 5 min, the temperature at 37 °C, and shake at 180 rpm. […] In order to analyze functions of CsiD and LhgO in endogenous L-2-HG anabolism and catabolism during carbon starvation, pETDuet-LHGFR0N3C, pETDuet-LHGFR0N7C, or pETDuet-LHGFR3N7C was transferred into E. coli MG1655(DE3) and its variants, and the assays were performed using the same procedure.

LHGFR0N3C [11] = test system: T3, LHGFR0N3C; assay: Emission ratio of cytosolic sensor in HEK293FT cells permeabilized with 10 uM digitonin versus L-2-HG (10 nM to 10 mM) in Hank's balanced salt solution with 20 mM HEPES.; type: cell-based; details: read-out: apparent Kd of LHGFR0N3C expressed in HEK293FT cells; SD, n = 3
Procedure: To characterize the sensitivity and specificity of LHGFR expressed in HEK293FT cells, cells were trypsinized 48 h following transfection and suspended in 1× Hank’s balanced salt solution supplemented with 20 mM HEPES. […] Digitonin at a concentration of 10 μM was used to induce cell permeabilization and deplete intracellular L-2-HG for in vivo response curves construction. Then, the fluorescence intensities were determined by a SpectraMax i3 fluorescence plate reader (Molecular Devices, USA) with excitation at 430 nm and emission at 485 nm (mTFP) and 528 nm (Venus). Basal L-2-HG concentration in HEK293FT cells under physiological conditions was determined by substituting the emission ratios of non-permeabilized HEK293FT cells into the calibrated in vivo response curves.

Structure (SMILES)	Kd (LHGFR0N7C [1]) [µM]	Kd (LHGFR0N0C) [µM]	Kd (LHGFR0N3C [2]) [µM]	Kd (LHGFR0N7C [3]) [µM]	Kd (LHGFR0N3C [4]) [µM]	Kd (LHGFR0N7C [5]) [µM]	Kd (LHGFR0N3C [6]) [µM]	Kd (LHGFR0N7C [7]) [µM]	Kd (LHGFR0N3C [8]) [µM]	Kd (LHGFR0N7C [9]) [µM]	Kd (LHGFR0N3C [10]) [µM]	Kd (LHGFR0N3C [11]) [µM]
O=C(O)CC[C@@H](O)C(=O)O [D-2-HG, D-2-hydroxyglutarate]	1850	–	–	–	–	–	–	–	–	–	–	–
O=C(O)CC[C@H](O)C(=O)O [L-2-HG, L-2-hydroxyglutarate]	–	2.74	29.3	7.22	27.8	8.35	29.5	7.77	36.9	6.65	892	43.8
